# Source: patent US20240279684A1, “CYTOSOLIC DELIVERY OF GENOME EDITING TOOLS” (SAPREME TECHNOLOGIES B.V., priority 2021, published 2024)
# System: JIMT-1 cells
# Assay: Transfection efficiency of PD-nanoplexes with/without saponin, flow cytometry (GFP)
# Type: cell-based, human
# Conditions: GFP-DNA PD-nanoplexes, saponin 2 μg/ml
# Method: After biophysical characterisation had established that nanoplexes of the large plasmid DNA and the poly-lysine peptide were formed, cell experiments were performed: transfections. […] Without wishing to be bound by any theory, the latter effect is most likely due to insufficient complexing of DNA. […] JIMT-1-cells (DSMZ no.: ACC 589) and Neuro-2A- cells (DSMZ no.: ACC 148) were transfected with nanoplexes containing relatively large Cas9-GFP-plasmid, with and without GE1741-Co-application or SO1861-Co-application at a non-toxic concentration, when the cell which is to be transfected is considered. The transfection efficiency of all transfection conditions was measured after 48 h incubation time using flow cytometry by comparison to the negative control in terms of fluorescence intensity (for example, cells contacted with the nanoparticles in the absence of saponin). The efficiency of GE1741-based transfections and SO1861-based transfections was also compared with efficiency of Lipofectamine3000™-based transfection of the nanoparticles. Transfections were performed according to protocols commonly known and applied in the field (Clochard et al., 2020; Sama et al., 2018a; Sama et al., 2017; Sama et al., 2018b). […] Transfection efficiency of GE1741-mediated PD-transfection and SO1861-mediated PD-transfections on Neuro-2A cells and JIMT-1 cells was assessed. […]
structure (smiles),measurement,value
CC(=O)OC1C(C)OC(OC2C(C)OC(OC(=O)C34CCC(C)(C)CC3C3=CCC5C6(C)CCC(OC7OC(C(=O)O)C(O)C(OC8OCC(O)C(O)C8O)C7OC7OC(CO)C(O)C(O)C7O)C(C)(C=O)C6CCC5(C)C3(C)CC4O)C(OC3OC(C)C(OC4OCC(O)C(OC5OCC(O)C(O)C5O)C4O)C(O)C3O)C2O)C(O)C1OC(C)=O (stereo not shown) [GE1741],transfection efficiency (cells expressing GFP),around 70%
